Test results reported in US20060217308A1, “Compositions for the treatment of tumor pathologies, comprising internalin B (ln1B) of Listeria monocytogene protein or a fragment thereof” (priority 2005, published 2006).

Columns and labels:
Met [1] = assay: Effect of proteasome and lysosome inhibitors on In1B-dependent degradation of Met; assay type: cell-based, human; conditions: HeLa cells pre-treated with inhibitor before addition of In1B; anti-Met immunoblot
Procedure: (A) Hela cells were treated (+) with […] epoximycin, […] clasto-lactacystin-β-lactone (lactone), 20 mM ammonium chloride, or 5 μM bafilomycin A1 (Baf-A1) for 90 minutes before addition of In1B. Cell extracts were loaded in a SDS-PAGE gel followed by immunoblot with anti-Met antibody. […] (B) Surface exposed proteins of Hela cells were biotinylated (Biot +) before addition of In1B. In1B was added for two minutes to allow internalization of Met, then cells were washed and biotin was removed (see methods and text) from the surface. Samples were precipitated with neutravidin agarose and blotted against Met.
Mono-ubiquitination is the signal that induces endocytosis of RTKs after ligand binding and usually drives cargo proteins to lysosomal degradation (6, 17, 34). To study whether In1B-dependent degradation of Met is a proteasomal or a lysosomal event, HeLa cells were treated with clasto-p-lactacystin lactone or epoximycin, two inhibitors of proteasome degradation, and ammonium chloride or bafilomycin A1, two inhibitors of lysosome degradation, […] before the addition of In1B. Cellular extracts were then immunoblotted using anti Met antibodies (FIG. 4).

[2] = target: Met (hepatocyte growth factor receptor), endogenous in human HeLa cells (human) (UniProt P08581); assay: cell-based or functional assay
Met [3] = target: Met (Homo sapiens, UniProt P08581); conditions: comparison with In1B; cited from earlier work
[4] = test system: poly-ubiquitinated proteins; assay: FK1 functionality test: poly-ubiquitin immunoblot of HeLa cells treated with proteasome inhibitors; assay type: cell-based, human; conditions: 60 minutes treatment, versus non-treated
Procedure: (A) In1B was added (+) to HeLa cells. Lysates were immunoprecipitated using C12 rabbit polyclonal anti-Met antibody and blotted against Met (DL21 mAb). The same membrane was stripped and blotted against ubiquitin using FK1, a mAb that recognizes poly-ubiquitinated proteins, or P4D1, a mAb that recognizes both poly- and mono-ubiquitinated proteins. (B) Total cell extracts from Hela cells treated with […] epoximycin (lane 2) or […] clasto-lactacystin-β-lactone (lane 3) for 60 minutes, or non-treated cells (lane 1) were blotted against poly-ubiquitin (FK1) or actin. (C) ubiquitin ladder was blotted with FK1 or P4D1. The number of ubiquitin modules is indicated on the right. The molecular weight of protein markers is shown in the left of the panels, in kDa. In D and E, Hela Cells were transfected with siRNA to knock down Cbl expression (RNAi), or with RNA control (Control). (D) Cellular Cbl and actin were detected by immunoblotting. […]
The rapid degradation of Met after In B contact is different from the HGF-dependent degradation, which has been reported to take two hours (19-21), indicating differences in the biochemistry of the process. […] Samples from HeLa cells treated with In1B (5 nM) were immunoprecipitated using an anti-Met antibody, and then Met-immunoprecipitates were analyzed with an anti Met mAb (FIG. 3A1), FK1 (FIG. 3A2) or P4D1 (FIG. 3A3). […]

Met [5] = assay: Effect of cycloheximide on In1B-dependent degradation and de-novo synthesis of Met; assay type: cell-based, human; conditions: HeLa cells pre-treated 90 minutes before In1B
Procedure: FIG. 2 depicts the degradation and de-novo synthesis of Met. (A) HeLa cells were treated at the indicated times with 5 nM In1B and cellular extracts were blotted against Met. (B) Cells were treated as in A, but blotted at the same time with anti-Met antibody and Streptavidin. Stars indicate nonspecific bands recognized by streptavidin and the square indicates Met. (C) The experiment was performed as in A, but cells were pre-treated with […] of cycloheximide for 90 minutes before addition of In1B. (D) This experiment was performed as in A, but In1B was removed three minutes after it was added. Actin is shown as the loading control in A, C and D. The molecular mass of the markers is indicated in kDa.
In order to determine whether de-novo synthesis of Met occurred after In1B dependent-degradation, HeLa cells were pre-treated with cycloheximide, which inhibits protein synthesis, for 90 minutes before exposure to In1B.

Met (hepatocyte growth factor receptor), endogenous in human HeLa cells (human), sequence (P08581 25-1390): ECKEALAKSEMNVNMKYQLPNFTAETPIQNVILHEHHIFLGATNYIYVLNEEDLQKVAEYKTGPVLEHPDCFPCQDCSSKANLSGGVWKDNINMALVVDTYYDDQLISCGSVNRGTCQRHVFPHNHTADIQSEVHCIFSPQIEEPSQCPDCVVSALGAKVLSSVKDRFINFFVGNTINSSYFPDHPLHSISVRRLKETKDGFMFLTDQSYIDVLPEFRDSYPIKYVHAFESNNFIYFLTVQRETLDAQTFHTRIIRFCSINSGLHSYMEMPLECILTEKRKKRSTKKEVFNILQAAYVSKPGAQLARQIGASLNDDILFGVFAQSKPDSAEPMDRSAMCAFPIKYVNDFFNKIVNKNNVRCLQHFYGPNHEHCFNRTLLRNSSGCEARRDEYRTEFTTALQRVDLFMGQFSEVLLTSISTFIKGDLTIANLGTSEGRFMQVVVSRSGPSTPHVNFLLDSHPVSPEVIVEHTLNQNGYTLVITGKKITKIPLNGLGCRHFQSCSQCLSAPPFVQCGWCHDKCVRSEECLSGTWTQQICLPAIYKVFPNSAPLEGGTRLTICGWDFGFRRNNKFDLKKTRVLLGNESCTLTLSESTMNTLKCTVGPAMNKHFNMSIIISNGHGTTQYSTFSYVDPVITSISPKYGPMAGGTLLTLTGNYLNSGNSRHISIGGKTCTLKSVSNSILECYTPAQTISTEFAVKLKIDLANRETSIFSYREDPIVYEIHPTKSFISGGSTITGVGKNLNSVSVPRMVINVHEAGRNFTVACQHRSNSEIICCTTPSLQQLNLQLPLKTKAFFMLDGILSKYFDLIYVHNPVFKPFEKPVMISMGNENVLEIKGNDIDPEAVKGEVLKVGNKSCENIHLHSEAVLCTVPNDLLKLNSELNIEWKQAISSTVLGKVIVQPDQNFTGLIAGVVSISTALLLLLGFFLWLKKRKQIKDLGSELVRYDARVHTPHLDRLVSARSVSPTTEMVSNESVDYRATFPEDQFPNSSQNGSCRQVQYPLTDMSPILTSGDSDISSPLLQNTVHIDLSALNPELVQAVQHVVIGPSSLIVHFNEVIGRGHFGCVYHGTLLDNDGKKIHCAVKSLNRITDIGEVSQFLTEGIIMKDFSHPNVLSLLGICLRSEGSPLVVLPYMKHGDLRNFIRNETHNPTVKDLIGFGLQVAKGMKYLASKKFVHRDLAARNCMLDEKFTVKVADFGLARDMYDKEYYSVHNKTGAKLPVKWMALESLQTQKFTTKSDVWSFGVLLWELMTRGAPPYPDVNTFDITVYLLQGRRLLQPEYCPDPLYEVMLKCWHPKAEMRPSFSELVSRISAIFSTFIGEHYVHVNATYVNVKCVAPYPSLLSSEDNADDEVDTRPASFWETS
Met (Homo sapiens, UniProt P08581), sequence (P08581 25-1390): as above

## Cl.N [ammonium chloride]
Met [1]
  effect of inhibitor on In1B-dependent degradation of Met: significantly protected Met from degradation

## In1B (internalin B) of Listeria monocytogenes, purified soluble protein (ligand)
[2]
  Met phosphorylation (blot against phospho-tyrosine): 2 min
  kinetics of In1B-dependent ubiquitination of Met: 2 min
  minimal amount of In1B necessary to trigger Met ubiquitination: 1.75 nM

## CO/C1=C\C(C)=C\[C@@H](C)[C@@H](O)[C@@H](C)C/C(C)=C/C=C/[C@H](OC)[C@@H]([C@@H](C)[C@@H](O)[C@H](C)[C@@]2(O)C[C@@H](O)[C@H](C)[C@@H](C(C)C)O2)OC1=O [bafilomycin A1]
Met [1]
  effect of inhibitor on In1B-dependent degradation of Met: significantly protected Met from degradation

## HGF: Met ligand (hepatocyte growth factor)
Met [3]
  time needed for a similar rate of Met degradation after activation with HGF: two to five and two

## CC(C)[C@H](O)[C@@]12NC(=O)[C@H](C)[C@@H]1OC2=O [clasto-lactacystin-β-lactone]
[4]
  poly-ubiquitin (FK1) signal in cells treated with proteasome inhibitor: stronger signals
Met [1]
  effect of inhibitor on In1B-dependent degradation of Met: did not inhibit

## CC[C@H](C)[C@H](NC(=O)[C@H]([C@@H](C)CC)N(C)C(C)=O)C(=O)N[C@H](C(=O)N[C@@H](CC(C)C)C(=O)[C@@]1(C)CO1)[C@@H](C)O [epoximycin]
[4]
  poly-ubiquitin (FK1) signal in cells treated with proteasome inhibitor: stronger signals
Met [1]
  effect of inhibitor on In1B-dependent degradation of Met: did not inhibit

## C[C@@H]1C[C@@H]([C@H](O)CC2CC(=O)NC(=O)C2)C(=O)[C@@H](C)C1 [cycloheximide]
Met [5]
  effect of cycloheximide on In1B-dependent degradation of Met: did not prevent
  effect of cycloheximide on de-novo synthesis of Met after In1B: strongly hampered
